Data from patent US20240025906A1 (NEURON23, INC., priority 2022, published 2024).

Key:
[1] = molecular target: T1, TYK2 JH2 (Homo sapiens, UniProt P29597); experiment: TYK2 JH2 binding assay (KINOMEscan KdELECT competitive binding); details: TYK2 JH2 domain, KINOMEscan KdELECT (Assay A); read-out: Biochemical TYK2_DiscoverX_JH2_BND_Kd
T1 construct: purchased DiscoverX (KINOMEscan KdELECT service); host or cells: E. coli BL21-derived (T7 phage display) or HEK-293
Summary of the method: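 Beads carrying a biotinylated ligand were mixed with tagged JH2 kinase and compound (11 points, 3-fold steps, 0.9% DMSO) and shaken 1 h at room temperature. After washing, kinase was released with 0.5 μM untagged ligand over 30 min and measured by qPCR to derive Kd.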

[2] = tested on: JAK1/TYK2 pSTAT5 (Tyr694/699) in THP-1 cell line; experiment: IFNa-stimulated JAK1/TYK2 pSTAT5 (Tyr694/699) inhibition cellular assay, AlphaLISA; format: cell-based; details: Homo sapiens; THP-1 cells, IFNa-stimulated, AlphaLISA (Assay B); read-out: Cellular_THP1_IFNa-pSTATS_TYK2
Summary of the method: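 THP-1, 2e4 cells/well, HBSS; cpd 1 h 37 °C (10000–0.04 nM final, 6-fold, 8 pt); IFNa 100 ng/mL added, 30 min; lyse, freeze −80 °C; pSTAT5 AlphaLISA, 615 nm; 4PL IC50, bottom fixed 0, slope −1.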

T1 sequence (P29597 589-875 limits assumed): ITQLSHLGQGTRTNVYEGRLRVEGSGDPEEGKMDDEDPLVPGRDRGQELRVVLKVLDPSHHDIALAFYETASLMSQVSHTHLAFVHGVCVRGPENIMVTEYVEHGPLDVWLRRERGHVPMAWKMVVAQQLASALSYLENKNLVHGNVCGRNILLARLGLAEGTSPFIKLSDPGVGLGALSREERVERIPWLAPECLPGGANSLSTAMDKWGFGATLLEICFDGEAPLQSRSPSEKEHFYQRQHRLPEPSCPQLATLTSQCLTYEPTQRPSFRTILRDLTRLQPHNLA

SMILES	Kd [1] [nM]	IC50 [2] [nM]
CNc1ncc(C#Cc2ccc3nnn(C)c3c2)c2cc(NC(=O)C3CC3)ncc12 [Example 595, N-(5-((1-methyl-1H-benzo[d][1,2,3]triazol-6-yl)ethynyl)-8-(methylamino)-2,7-naphthyridin-3-yl)cyclopropanecarboxamide]	≤ 100	≤ 500
CNc1ncc(C#Cc2ccn(C)n2)c2cc(NC(=O)C3CC3)ncc12 [Example 596, N-(5-((1-methyl-1H-pyrazol-3-yl)ethynyl)-8-(methylamino)-2,7-naphthyridin-3-yl)cyclopropanecarboxamide]	≤ 100	≤ 500
CNc1ncc(C#Cc2ncn(C)n2)c2cc(NC(=O)C3CC3)ncc12 [Example 597, N-(5-((1-methyl-1H-1,2,4-triazol-3-yl)ethynyl)-8-(methylamino)-2,7-naphthyridin-3-yl)cyclopropanecarboxamide]	≤ 100	≤ 500
CNc1ncc(C#Cc2nc3ccccn3n2)c2cc(NC(=O)C3CC3)ncc12 [Example 598, N-(5-([1,2,4]triazolo[1,5-a]pyridin-2-ylethynyl)-8-(methylamino)-2,7-naphthyridin-3-yl)cyclopropanecarboxamide]	≤ 100	≤ 500
CNc1ncc(C#Cc2ccncn2)c2cc(NC(=O)C3CC3)ncc12 [Example 599, N-(8-(methylamino)-5-(pyrimidin-4-ylethynyl)-2,7-naphthyridin-3-yl)cyclopropanecarboxamide]	≤ 100	≤ 500
CNc1ncc(C#Cc2cnco2)c2cc(NC(=O)C3CC3)ncc12 [Example 600, N-(8-(methylamino)-5-(oxazol-5-ylethynyl)-2,7-naphthyridin-3-yl)cyclopropanecarboxamide]	≤ 100	≤ 500
CNc1ncc(C#Cc2ccnc(C)c2)c2cc(NC(=O)C3CC3)ncc12 [Example 601, N-(8-(methylamino)-5-((2-methylpyridin-4-yl)ethynyl)-2,7-naphthyridin-3-yl)cyclopropanecarboxamide]	≤ 100	≤ 500
CNc1ncc(C#Cc2ccn3cnnc3c2)c2cc(NC(=O)C3CC3)ncc12 [Example 607, N-(5-([1,2,4]triazolo[4,3-a]pyridin-7-ylethynyl)-8-(methylamino)-2,7-naphthyridin-3-yl)cyclopropanecarboxamide]	≤ 100	≤ 500
CNc1ncc(C#Cc2ccc(O)c(C#N)c2)c2cc(NC(=O)C3CC3)ncc12 [Example 608, N-(5-((3-cyano-4-hydroxyphenyl)ethynyl)-8-(methylamino)-2,7-naphthyridin-3-yl)cyclopropanecarboxamide]	≤ 100	≤ 500
CNc1ncc(C#Cc2ccn3ncnc3c2)c2cc(NC(=O)C3CC3)ncc12 [Example 609, N-(5-([1,2,4]triazolo[1,5-a]pyridin-7-ylethynyl)-8-(methylamino)-2,7-naphthyridin-3-yl)cyclopropanecarboxamide]	≤ 100	≤ 500
CNc1ncc(C#Cc2ccc(S(C)(=O)=O)cc2)c2cc(NC(=O)C3CC3)ncc12 [Example 610, N-(8-(methylamino)-5-((4-(methylsulfonyl)phenyl)ethynyl)-2,7-naphthyridin-3-yl)cyclopropanecarboxamide]	≤ 100	≤ 500
CNc1ncc(C#Cc2cnc3cccnn23)c2cc(NC(=O)C3CC3)ncc12 [Example 611, N-(5-(imidazo[1,2-b]pyridazin-3-ylethynyl)-8-(methylamino)-2,7-naphthyridin-3-yl)cyclopropanecarboxamide]	≤ 100	≤ 500
CNc1ncc(C#Cc2ccncc2OC)c2cc(NC(=O)C3CC3)ncc12 [Example 612, N-(5-((3-methoxypyridin-4-yl)ethynyl)-8-(methylamino)-2,7-naphthyridin-3-yl)cyclopropanecarboxamide]	≤ 100	≤ 500
CNc1ncc(C#Cc2ccc(OC)cn2)c2cc(NC(=O)C3CC3)ncc12 [Example 613]	≤ 100	≤ 500
CNc1ncc(C#Cc2ccc3c(c2)n(C)c(=O)n3C)c2cc(NC(=O)C3CC3)ncc12 [Example 614, N-(5-((1,3-dimethyl-2-oxo-2,3-dihydro-1H-benzo[d]imidazol-5-yl)ethynyl)-8-(methylamino)-2,7-naphthyridin-3-yl)cyclopropanecarboxamide]	≤ 100	≤ 500

Now from value to compound:

Kd [1] [nM]	IC50 [2] [nM]	SMILES
≤ 100	≤ 500	CNc1ncc(C#Cc2ccn3c(C)nnc3c2)c2cc(NC(=O)C3CC3)ncc12 [Example 615, N-(5-((3-methyl-[1,2,4]triazolo[4,3-a]pyridin-7-yl)ethynyl)-8-(methylamino)-2,7-naphthyridin-3-yl)cyclopropanecarboxamide]
≤ 100	≤ 500	CNc1ncc(C#Cc2ccc3ncn(C)c3c2)c2cc(NC(=O)C3CC3)ncc12 [Example 616, N-(5-((1-methyl-1H-benzo[d]imidazol-6-yl)ethynyl)-8-(methylamino)-2,7-naphthyridin-3-yl)cyclopropanecarboxamide]
≤ 100	≤ 500	CNc1ncc(C#Cc2ccc3cnn(C)c3c2)c2cc(NC(=O)C3CC3)ncc12 [Example 617]
≤ 100	≤ 500	CNc1ncc(C#Cc2ccc3c(c2)nnn3C)c2cc(NC(=O)C3CC3)ncc12 [Example 618, N-(5-((1-methyl-1H-benzo[d][1,2,3]triazol-5-yl)ethynyl)-8-(methylamino)-2,7-naphthyridin-3-yl)cyclopropanecarboxamide]
≤ 100	≤ 500	CNc1ncc(C#Cc2cn3ccccc3n2)c2cc(NC(=O)C3CC3)ncc12 [Example 619, N-(5-(imidazo[1,2-a]pyridin-2-ylethynyl)-8-(methylamino)-2,7-naphthyridin-3-yl)cyclopropanecarboxamide]
≤ 100	≤ 500	CNc1ncc(C#Cc2ccc3ncccc3c2)c2cc(NC(=O)C3CC3)ncc12 [Example 620, N-(8-(methylamino)-5-(quinolin-6-ylethynyl)-2,7-naphthyridin-3-yl)cyclopropanecarboxamide]
≤ 100	≤ 500	CNc1ncc(C#Cc2ccnc(C(F)F)c2)c2cc(NC(=O)C3CC3)ncc12 [Example 621, N-(5-((2-(difluoromethyl)pyridin-4-yl)ethynyl)-8-(methylamino)-2,7-naphthyridin-3-yl)cyclopropanecarboxamide]
≤ 100	≤ 500	CNc1ncc(C#Cc2ccc3ocnc3c2)c2cc(NC(=O)C3CC3)ncc12 [Example 622, N-(5-(benzo[d]oxazol-5-ylethynyl)-8-(methylamino)-2,7-naphthyridin-3-yl)cyclopropanecarboxamide]
≤ 100	≤ 500	CNc1ncc(C#Cc2ccnc(C(F)(F)F)c2)c2cc(NC(=O)C3CC3)ncc12 [Example 623, N-(8-(methylamino)-5-((2-(trifluoromethyl)pyridin-4-yl)ethynyl)-2,7-naphthyridin-3-yl)cyclopropanecarboxamide]
≤ 100	≤ 500	CNc1ncc(C#Cc2ccc(N3CCOCC3)cc2)c2cc(NC(=O)C3CC3)ncc12 [Example 624, N-(8-(methylamino)-5-((4-morpholinophenyl)ethynyl)-2,7-naphthyridin-3-yl)cyclopropanecarboxamide]
≤ 100	≤ 500	CNc1ncc(C#Cc2ccc3ncn(C4CC4)c3c2)c2cc(NC(=O)C3CC3)ncc12 [Example 625, N-(5-((1-cyclopropyl-1H-benzo[d]imidazol-6-yl)ethynyl)-8-(methylamino)-2,7-naphthyridin-3-yl)cyclopropanecarboxamide]
≤ 100	≤ 500	CNc1ncc(C#Cc2ccn3ccnc3c2)c2cc(NC(=O)C3CC3)ncc12 [Example 626, N-(5-(imidazo[1,2-a]pyridin-7-ylethynyl)-8-(methylamino)-2,7-naphthyridin-3-yl)cyclopropanecarboxamide]
≤ 100	≤ 500	CNc1ncc(C#Cc2ccc3nccnc3c2)c2cc(NC(=O)C3CC3)ncc12 [Example 627, N-(8-(methylamino)-5-(quinoxalin-6-ylethynyl)-2,7-naphthyridin-3-yl)cyclopropanecarboxamide]
≤ 100	≤ 500	CNc1ncc(C#Cc2ccc3nc(C)sc3c2)c2cc(NC(=O)C3CC3)ncc12 [Example 628, N-(8-(methylamino)-5-((2-methylbenzo[d]thiazol-6-yl)ethynyl)-2,7-naphthyridin-3-yl)cyclopropanecarboxamide]
≤ 100	≤ 500	CNc1ncc(C#Cc2cccc(OC)c2)c2cc(NC(=O)C3CC3)ncc12 [Example 629, N-(5-((3-methoxyphenyl)ethynyl)-8-(methylamino)-2,7-naphthyridin-3-yl)cyclopropanecarboxamide]
≤ 100	≤ 500	CNc1ncc(C#Cc2ccccc2OC)c2cc(NC(=O)C3CC3)ncc12 [Example 630, N-(5-((2-methoxyphenyl)ethynyl)-8-(methylamino)-2,7-naphthyridin-3-yl)cyclopropanecarboxamide]
≤ 100	≤ 500	CNc1ncc(C#Cc2ccc(OC)nc2)c2cc(NC(=O)C3CC3)ncc12 [Example 631, N-(5-((6-methoxypyridin-3-yl)ethynyl)-8-(methylamino)-2,7-naphthyridin-3-yl)cyclopropanecarboxamide]
